{"source": "ChEMBL document CHEMBL1147474", "about": "“Synthesis of new 2'-beta-C-methyl related triciribine analogues as anti-HCV agents” (Bioorg Med Chem Lett, 2004)", "key": {"Huh-7 [1]": {"tested_on": "Huh-7", "experiment": "Cytotoxicity using HCV replicon assay", "format": "functional", "details": "Homo sapiens"}, "Huh-7 [2]": {"tested_on": "Huh-7", "experiment": "Compound was tested for its ability to inhibit hepatitis C viral RNA replication in Huh-7 cells (human hepatoma cells)", "format": "functional, cell-based"}}, "note": "pEC50: −log10 of the molar value.", "data": [{"smiles": "CCN1N=C(N)c2cn([C@@H]3O[C@H](CO)[C@@H](O)[C@@]3(C)O)c3ncnc1c23", "values": [{"measurement": "CC50", "setting": "Huh-7 [1]", "value": "> 200", "unit": "µM"}, {"measurement": "pEC50", "setting": "Huh-7 [2]", "value": 4.82}]}, {"smiles": "CN1N=C(N)c2cn([C@@H]3O[C@H](CO)[C@@H](O)[C@@]3(C)O)c3ncnc1c23", "values": [{"measurement": "CC50", "setting": "Huh-7 [1]", "value": "> 300", "unit": "µM"}, {"measurement": "pEC50", "setting": "Huh-7 [2]", "value": 4.74}]}, {"smiles": "C[C@@]1(O)[C@H](O)[C@@H](CO)O[C@H]1n1cc2c3c(ncnc31)N(CCO)N=C2N", "values": [{"measurement": "CC50", "setting": "Huh-7 [1]", "value": "> 300", "unit": "µM"}, {"measurement": "pEC50", "setting": "Huh-7 [2]", "value": 3.70}]}, {"smiles": "CCCN1N=C(N)c2cn([C@@H]3O[C@H](CO)[C@@H](O)[C@@]3(C)O)c3ncnc1c23", "values": [{"measurement": "CC50", "setting": "Huh-7 [1]", "value": "> 300", "unit": "µM"}, {"measurement": "pEC50", "setting": "Huh-7 [2]", "value": 4.00}]}, {"smiles": "NC1=NN(CCO)c2ncnc3c2c1cn3[C@@H]1O[C@H](CO)[C@@H](O)[C@H]1O", "values": [{"measurement": "CC50", "setting": "Huh-7 [1]", "value": "> 300", "unit": "µM"}, {"measurement": "pEC50", "setting": "Huh-7 [2]", "value": 4.70}]}, {"smiles": "CCN1N=C(N)c2cn([C@@H]3O[C@H](CO)[C@@H](O)[C@H]3O)c3ncnc1c23", "values": [{"measurement": "CC50", "setting": "Huh-7 [1]", "value": 150, "unit": "µM"}, {"measurement": "pEC50", "setting": "Huh-7 [2]", "value": 6.00}]}, {"smiles": "CC(=O)NC1=NN(C)c2ncnc3c2c1cn3[C@@H]1O[C@H](CO)[C@@H](O)[C@@]1(C)O", "values": [{"measurement": "CC50", "setting": "Huh-7 [1]", "value": 300, "unit": "µM"}, {"measurement": "pEC50", "setting": "Huh-7 [2]", "value": 3.82}]}, {"smiles": "CCCCN1N=C(N)c2cn([C@@H]3O[C@H](CO)[C@@H](O)[C@@]3(C)O)c3ncnc1c23", "values": [{"measurement": "CC50", "setting": "Huh-7 [1]", "value": "> 300", "unit": "µM"}, {"measurement": "pEC50", "setting": "Huh-7 [2]", "value": 4.00}]}, {"smiles": "NC1=NN(Cc2ccccc2)c2ncnc3c2c1cn3[C@@H]1O[C@H](CO)[C@@H](O)[C@H]1O", "values": [{"measurement": "CC50", "setting": "Huh-7 [1]", "value": "> 300", "unit": "µM"}, {"measurement": "pEC50", "setting": "Huh-7 [2]", "value": 3.90}]}, {"smiles": "CC(=O)NC1=NN(CCO)c2ncnc3c2c1cn3[C@@H]1O[C@H](CO)[C@@H](O)[C@@]1(C)O", "values": [{"measurement": "CC50", "setting": "Huh-7 [1]", "value": 200, "unit": "µM"}, {"measurement": "pEC50", "setting": "Huh-7 [2]", "value": 4.00}]}]}
